# Earlier results as cited in patent publication EP2583674A2, “ACECLOFENAC SLOW-RELEASE PREPARATION PROVIDING AN OPTIMUM PHARMACOLOGICAL CLINICAL EFFECT WHEN ADMINISTERED ONCE A DAY” (Korea United Pharm, Inc., priority 2010, dated 2011).
# [1] = aceclofenac and the metabolites thereof
structure (smiles),measurement,setting,value
"O=C(O)COC(=O)Cc1ccccc1Nc1c(Cl)cccc1Cl [aceclofenac, 2-[(2,6-dichlorophenyl)amino]-phenylacetoxyacetic acid]",excreted through stool,[1],approximately 20%
same,excreted through urine,[1],approximately 70%
same,excretion rate (half-life),in vivo,approximately 4 hours
same,duration,orally administered,approximately 12 hours
same,onset time,orally administered,≤ 30 min
